Where two headings read alike, the source gives them in different places.
How the values were obtained:
[1] = molecular target: human NR1/NR2B ion channels (Homo sapiens (Human), UniProt Q05586+Q13224); assay: HNR2BC: calcium influx assay on cloned human NR1/NR2B ion channels expressed in HEK cells; format: cell-based; conditions: HEK cells with hNR1/NR2B, 100 μM glutamate + 100 μM glycine, 3 parameter plot
Experimental: HNR2BC: Effects of Test Articles on Cloned Human NR1/NR2B Ion Channels Expressed in Mammalian Cells
The ability of test compounds to act as an antagonist of NR1/NR2B was evaluated with a calcium influx assay (Calcium 5 Assay Kit, Molecular Devices).
For the antagonist assessment, NR1/NR2B was activated with the positive control agonist (Mg^2+-free HBPS+100 μM glutamic acid+100 μM glycine).
A HEK cell line, stable transfected with hNR1/NR2B was used. This tetracycline inducible cell line is transfected with GRIN1 (GeneBank accession number NM_007327.2) and GRIN2B (GeneBank accession number NM_000834.3.). The cells were cultured in cell culture flasks with DMEM/F12 supplemented with 10% FCS, 1% PenStrep and a selection of additional antibiotics.
Forty-Eight (48) hours before the assay the cells were plated into 96-well black well, flat clear bottom microtiter plates at a density of 50000 cells/well. Twenty-Four (24) hours later the receptor expression was induced by the addition of 1 μg/ml tetracycline in the presence of 2 mM ketamine and 200 μM 7-CKA. After 24 h of receptor induction the plates were used for the assay.
The medium was removed and the cells were loaded with 200 μl loading buffer (Molecular Devices) in Mg2+-free HBPS containing 100 μM 7-CKA at 37° C. for one (1) hour.
The test compounds were then solubilized in 100% DMSO and diluted to yield eight (8) different concentrations in 100% DMSO. A 96 well drug plate was prepared by diluting with water and glycine/glutamate to a 5-fold of final test concentration. Fluorescence intensity of the cells in the plate was measured in a FlexStation using an excitation wavelength of 485 nm and an emission wavelength of 525 nm. Twenty (20) seconds after starting the recordings the compounds together with the agonists glycine (100 μM) and glutamate (100 μM) were added into the wells and the fluorescence measured for ninety (90) seconds in summary.
The IC50 values provided in the paragraph below were determined using a 3 parameter plot.

mice = assay: Forced swim test in mice; format: in vivo; conditions: p.o. 30 minutes before the test, male NMRI mice
Experimental: The compounds of the invention show significant antidepressive effects in the forced swim test in mice, an animal model of depression at doses of 100 mg/kg or below.
The method, which detects antidepressant activity, follows that described by Porsolt et al (Arch. Int. Pharmacodyn., 229, 327-336, 1977), which is incorporated by reference herein in its entirety.
Mice forced to swim in a situation from which they cannot escape rapidly become immobile. Antidepressants decrease the duration of immobility.
Male NMRI mice (Janvier, France), weighing 20-30 g, were individually placed in a cylinder (height=24 cm; diameter=13 cm) containing 10 cm water (22° C.) from which they cannot escape.
The mice were placed in the water for 6 minutes and the duration of immobility during the last 4 minutes was measured. The latency to the first bout of immobility was also recorded starting from the beginning of the test. 10 mice were studied per group. The test substance was administered p.o. 30 minutes before the test and compared with vehicle control group. The test was performed blind.

rat NR1/NR2B receptor = rat NR1/NR2B receptor (Rattus norvegicus (Rat), UniProt P35439+Q00960); assay: NR2B binding assay: inhibition of specific [3H]-Ifenprodil binding to the rat NR1/NR2B receptor; conditions: [3H]-Ifenprodil binding, rat brain membranes
hERG receptor = hERG receptor (Homo sapiens (Human), UniProt Q12809); assay: HERGBD: inhibition of specific [3H]-Dofetilide binding to the hERG receptor
Chain of hERG receptor (Q12809 whole entry): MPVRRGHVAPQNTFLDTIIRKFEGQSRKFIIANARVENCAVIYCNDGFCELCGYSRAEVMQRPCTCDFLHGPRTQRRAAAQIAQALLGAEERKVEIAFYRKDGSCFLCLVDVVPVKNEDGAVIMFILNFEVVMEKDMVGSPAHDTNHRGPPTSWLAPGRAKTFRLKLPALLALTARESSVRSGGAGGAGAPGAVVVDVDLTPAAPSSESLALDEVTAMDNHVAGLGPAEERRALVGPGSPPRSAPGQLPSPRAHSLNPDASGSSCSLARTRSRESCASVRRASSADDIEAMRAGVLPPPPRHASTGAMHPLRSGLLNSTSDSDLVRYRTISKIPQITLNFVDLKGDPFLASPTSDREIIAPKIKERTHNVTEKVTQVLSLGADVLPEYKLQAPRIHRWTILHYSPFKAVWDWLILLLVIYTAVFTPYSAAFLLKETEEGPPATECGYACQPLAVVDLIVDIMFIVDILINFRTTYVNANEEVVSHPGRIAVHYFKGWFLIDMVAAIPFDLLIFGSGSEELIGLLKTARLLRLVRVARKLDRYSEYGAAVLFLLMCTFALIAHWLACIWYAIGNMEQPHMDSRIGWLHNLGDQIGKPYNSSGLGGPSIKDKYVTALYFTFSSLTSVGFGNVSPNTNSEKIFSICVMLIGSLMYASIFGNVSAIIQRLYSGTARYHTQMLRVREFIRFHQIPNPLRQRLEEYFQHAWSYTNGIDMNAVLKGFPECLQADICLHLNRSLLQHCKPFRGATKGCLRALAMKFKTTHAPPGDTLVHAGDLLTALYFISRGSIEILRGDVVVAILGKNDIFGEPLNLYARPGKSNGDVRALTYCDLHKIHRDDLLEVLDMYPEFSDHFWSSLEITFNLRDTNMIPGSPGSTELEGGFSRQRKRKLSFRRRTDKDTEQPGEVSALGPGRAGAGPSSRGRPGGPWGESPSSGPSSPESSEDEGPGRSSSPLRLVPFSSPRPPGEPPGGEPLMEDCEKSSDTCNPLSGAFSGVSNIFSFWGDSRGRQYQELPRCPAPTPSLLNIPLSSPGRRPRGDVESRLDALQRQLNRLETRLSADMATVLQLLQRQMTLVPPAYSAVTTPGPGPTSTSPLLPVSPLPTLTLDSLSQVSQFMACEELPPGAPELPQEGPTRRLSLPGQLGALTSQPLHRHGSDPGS

Chain of rat NR1/NR2B receptor (Q00960 27-1482, other chains not shown): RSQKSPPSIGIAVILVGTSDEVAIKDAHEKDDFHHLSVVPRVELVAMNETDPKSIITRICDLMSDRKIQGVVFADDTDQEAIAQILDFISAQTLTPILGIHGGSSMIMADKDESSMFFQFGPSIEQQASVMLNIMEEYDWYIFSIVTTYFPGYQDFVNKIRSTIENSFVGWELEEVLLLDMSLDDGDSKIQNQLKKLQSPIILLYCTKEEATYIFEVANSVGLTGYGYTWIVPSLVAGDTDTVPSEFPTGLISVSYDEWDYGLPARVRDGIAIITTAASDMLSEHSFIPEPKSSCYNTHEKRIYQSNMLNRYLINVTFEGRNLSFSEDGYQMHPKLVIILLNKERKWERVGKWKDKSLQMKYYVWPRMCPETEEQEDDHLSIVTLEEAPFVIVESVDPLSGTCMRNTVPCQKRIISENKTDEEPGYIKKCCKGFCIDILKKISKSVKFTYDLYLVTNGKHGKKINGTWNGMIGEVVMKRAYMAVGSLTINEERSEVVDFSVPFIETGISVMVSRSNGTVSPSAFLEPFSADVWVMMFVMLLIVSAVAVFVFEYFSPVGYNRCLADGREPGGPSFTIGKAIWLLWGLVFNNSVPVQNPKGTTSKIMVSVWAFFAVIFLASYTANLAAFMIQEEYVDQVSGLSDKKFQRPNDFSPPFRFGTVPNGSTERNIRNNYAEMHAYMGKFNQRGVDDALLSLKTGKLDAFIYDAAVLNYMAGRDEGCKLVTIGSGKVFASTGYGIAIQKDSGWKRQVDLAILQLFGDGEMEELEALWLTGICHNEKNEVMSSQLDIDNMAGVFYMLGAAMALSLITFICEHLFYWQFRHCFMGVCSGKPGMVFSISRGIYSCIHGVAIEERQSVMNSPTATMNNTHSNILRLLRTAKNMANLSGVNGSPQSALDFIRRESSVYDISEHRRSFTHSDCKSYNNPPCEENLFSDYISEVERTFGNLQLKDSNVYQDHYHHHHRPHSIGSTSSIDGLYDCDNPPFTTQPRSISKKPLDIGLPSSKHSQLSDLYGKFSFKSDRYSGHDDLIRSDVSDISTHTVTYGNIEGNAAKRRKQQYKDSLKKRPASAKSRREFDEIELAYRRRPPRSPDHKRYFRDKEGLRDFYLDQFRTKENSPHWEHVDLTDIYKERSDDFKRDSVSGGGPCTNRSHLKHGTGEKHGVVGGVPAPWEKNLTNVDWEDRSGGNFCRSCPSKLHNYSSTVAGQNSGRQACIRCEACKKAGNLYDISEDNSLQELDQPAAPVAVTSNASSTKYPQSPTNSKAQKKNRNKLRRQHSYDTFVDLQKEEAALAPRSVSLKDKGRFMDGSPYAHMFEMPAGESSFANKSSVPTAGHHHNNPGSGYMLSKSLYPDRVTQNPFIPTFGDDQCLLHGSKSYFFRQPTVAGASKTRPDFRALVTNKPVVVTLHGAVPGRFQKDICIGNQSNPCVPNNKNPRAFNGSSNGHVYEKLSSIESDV
Chain of human NR1/NR2B ion channels (Q13224 27-1484, other chains not shown): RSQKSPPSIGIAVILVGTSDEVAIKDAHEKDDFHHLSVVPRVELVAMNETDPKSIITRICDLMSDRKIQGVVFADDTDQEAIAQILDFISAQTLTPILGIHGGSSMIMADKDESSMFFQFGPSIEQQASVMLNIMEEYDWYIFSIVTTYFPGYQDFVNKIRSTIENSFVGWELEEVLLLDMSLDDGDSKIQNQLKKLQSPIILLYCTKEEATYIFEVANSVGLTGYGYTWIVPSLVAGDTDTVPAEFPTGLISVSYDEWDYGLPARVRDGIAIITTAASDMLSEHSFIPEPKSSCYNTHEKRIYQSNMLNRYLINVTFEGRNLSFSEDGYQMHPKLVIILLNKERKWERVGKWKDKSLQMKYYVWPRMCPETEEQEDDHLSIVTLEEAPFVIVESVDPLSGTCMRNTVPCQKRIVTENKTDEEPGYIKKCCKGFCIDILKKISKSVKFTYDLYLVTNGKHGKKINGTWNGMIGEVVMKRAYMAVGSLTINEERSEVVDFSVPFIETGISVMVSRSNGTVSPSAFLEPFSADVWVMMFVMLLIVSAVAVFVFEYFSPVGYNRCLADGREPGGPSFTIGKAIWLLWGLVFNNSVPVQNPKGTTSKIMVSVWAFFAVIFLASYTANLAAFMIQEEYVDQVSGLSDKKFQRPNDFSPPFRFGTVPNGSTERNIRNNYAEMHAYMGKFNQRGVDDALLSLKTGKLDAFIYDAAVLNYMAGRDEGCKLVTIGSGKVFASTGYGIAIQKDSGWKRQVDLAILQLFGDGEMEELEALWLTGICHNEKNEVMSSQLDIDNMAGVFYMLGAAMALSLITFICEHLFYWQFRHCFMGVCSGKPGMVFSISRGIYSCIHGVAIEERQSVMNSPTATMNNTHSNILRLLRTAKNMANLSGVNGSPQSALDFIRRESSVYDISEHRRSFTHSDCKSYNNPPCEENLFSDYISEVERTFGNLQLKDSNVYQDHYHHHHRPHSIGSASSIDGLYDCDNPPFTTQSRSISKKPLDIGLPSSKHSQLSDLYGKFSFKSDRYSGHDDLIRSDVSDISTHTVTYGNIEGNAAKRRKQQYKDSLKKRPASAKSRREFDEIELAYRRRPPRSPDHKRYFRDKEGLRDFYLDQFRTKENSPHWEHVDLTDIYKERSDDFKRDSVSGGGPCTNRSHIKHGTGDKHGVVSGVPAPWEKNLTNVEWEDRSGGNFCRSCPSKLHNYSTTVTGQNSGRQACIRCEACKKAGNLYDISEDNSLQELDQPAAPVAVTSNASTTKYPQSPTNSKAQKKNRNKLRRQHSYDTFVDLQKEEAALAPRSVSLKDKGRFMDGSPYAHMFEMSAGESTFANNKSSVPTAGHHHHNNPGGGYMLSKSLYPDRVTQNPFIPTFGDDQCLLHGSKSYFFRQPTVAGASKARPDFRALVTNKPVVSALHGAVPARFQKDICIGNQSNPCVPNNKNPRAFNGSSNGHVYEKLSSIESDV

Row | Structure (SMILES) | IC50 [1] | Minimum effective dose (mice) | IC50 (rat NR1/NR2B receptor) | IC50 (hERG receptor) | IC50 (hERG receptor; [3H]-Dofetilide binding, membranes of HEK cells with human ERG receptor, read-out: IC50)
1 | Cn1ccc(Cn2cc(-c3ccc(Cl)c(OC(F)F)c3)cn2)n1 [Example 2, 3-[[4-[4-Chloro-3-(difluoromethoxy)phenyl]pyrazol-1-yl]methyl]-1-methyl-pyrazole] | 2460 nM | 30 mg/kg |  |  | 
2 | Fc1ccc(-c2cnn(Cc3cc[nH]n3)c2)cc1OC(F)F [Example 18, 4-[3-(difluoromethoxy)-4-fluoro-phenyl]-1-(1H-pyrazol-3-ylmethyl) pyrazole] | 370 nM | 10 mg/kg |  |  | 
3 | Cn1ccc(Cn2cc(-c3ccc(Cl)cc3)cn2)n1 [Example 75, 3-[[4-(4-Chlorophenyl)pyrazol-1-yl]methyl]-1-methyl-pyrazole] | 33800 nM |  | 3040 nM | 131 µM | 
4 | Cc1n[nH]c(C)c1Cn1cc(-c2ccc(Cl)c(OC(F)F)c2)cn1 [Example 88, 4-[[4-(3-difluoromethoxy-4-chloro-phenyl)pyrazol-1-yl]methyl]-3,5-dimethyl-1H-pyrazole] | > 10000 nM |  | 152 nM | 43.2 µM | 
5 | CCc1c[nH]nc1Cn1cc(-c2ccc(F)c(OC(F)F)c2)cn1 [Example 91, 3-[[4-[3-(difluoromethoxy)-4-fluoro-phenyl]pyrazol-1-yl]methyl]-4-ethyl-1H-pyrazole Succinate] | 1250 nM |  | 43.8 nM | 48.9 µM | 
6 | CCc1c[nH]nc1Cn1cc(-c2ccc(F)c(C(F)F)c2)cn1 [Example 92, 3-[[4-[3-(difluoromethyl)-4-fluoro-phenyl]pyrazol-1-yl]methyl]-4-ethyl-1H-pyrazole] | 11900 nM |  | 71.2 nM |  | 27.4 µM
